Like-named read-outs stand apart in the source and are kept apart here.
How the values were obtained:
Assay type in all cases: cell-based
[1] = tested on: Staphylococcus aureus 25923 ATCC; experiment: MIC determination (CLSI), S. aureus 25923 ATCC; conditions: MIC class
Experimental: (§1) The effects exerted by different concentrations of the compounds on bacterial growth in Staphylococcus aureus 25923 ATCC, Staphylococcus aureus multidrug resistant 272123 clinical isolate (MRSA), Escherichia coli AG100 or Escherichia coli AG100 A were tested in 96-well plates. The MIC of selenocompounds was determined according to Clinical and Laboratory Standard Institute (CLSI) guidelines. The solvent used (DMSO) had no antibacterial effect. Alternatively, the MICs of oxacillin of the compounds in MRSA HEMSA 5 were determined by a broth microdilution method in cation-adjusted Mueller-Hinton Broth (MHB II) according to the recommendations of the CLSI. Results were recorded after a 20- or 24-hour incubation at 37°C.

[2] = tested on: Staphylococcus aureus multidrug resistant 272123 clinical isolate (MRSA); conditions: MIC class
Experimental: as §1

Saccharomyces cerevisiae = experiment: Antifungal activity (optical density), Saccharomyces cerevisiae
Experimental: The compounds were tested for their antifungal and nematicidal properties against the fungi Candida albicans and Saccharomyces cerevisiae, and against the nematode Steinernema feltiae.
Fungal cell densities were determined by measuring the optical density (OD) at 570 nm at 0 h (first measurement immediately after incubation), 4 h, and 24 h after incubation at 37 °C; and using a Universal Microplate Reader, EL800, Biotech Instruments, Inc. Highland Park, Winooski, VT, USA. Compounds were dissolved in 1% DMSO and were tested at final concentrations of 50, 100, 150, and 200 µM. Nutrient Sabouraud Dextrose (SD), and Yeast Peptone Dextrose (YPD) were used as media for C. albicans, and S. cerevisiae, respectively. Ketoconazole was used as the positive control for C. albicans and S. cerevisiae. The growth culture with medium for each organism was used as the negative control. The Solvent 1% DMSO stock was used as a solvent control. All experiments were carried out in triplicate and on three different occasions (n = 9).
For the three organisms considered (C. albicans, S. cerevisiae and S. feltiae), the inhibitory concentration 50% (IC50) is defined as the concentration that inhibits the viability of the respective organism to a 50% of the viability determined for the negative control.

[3] = read-out: Antifungal activity Saccharomyces cerevisiae, IC50 class, tested at 50, 100, 150 and 200 µM, OD 570 nm, 37 °C, read-out: Antifungal activity Streptomyces cerevisiae

Structure (SMILES) | Antibacterial activity Against S. aureus 25923 ATCC [1] | Antibacterial activity Against S. aureus MRSA 272123 [2] | IC50 (Saccharomyces cerevisiae; [3]) [µM] | IC50 (Saccharomyces cerevisiae; read-out: Antifungal activity Saccharomyces cerevisiae) [µM]
N#CC[Se]C(=O)c1ccc(C(=O)[Se]CC#N)cc1 [Compound 18, Se,Se-bis-(cyanomethyl) benzene-1,4-bis-(carboselenoate)] | *** (Potent antibacterial compounds: 1 µM < MIC ≤ 10 µM) | ** (Moderate antibacterial compounds: 10 µM < MIC ≤ 50 µM) | > 100 | 
CC(=O)C[Se]C(=O)c1cccc(C(=O)[Se]CC(C)=O)c1 [Compound 23, Se,Se-bis-(2-oxopropyl) benzene-1,3-bis-(carboselenoate)] | **** (Very potent antibacterial compounds: MIC ≤ 1 µM) | *** (Potent antibacterial compounds: 1 µM < MIC ≤ 10 µM) | > 100 | 
CC(=O)C[Se]C(=O)c1ccc(C(=O)[Se]CC(C)=O)cc1 [Compound 22, Se,Se-bis-(2-oxopropyl) benzene-1,4-bis-(carboselenoate)] | **** (Very potent antibacterial compounds: MIC ≤ 1 µM) | *** (Potent antibacterial compounds: 1 µM < MIC ≤ 10 µM) | 50 to 100 | 
CC(=O)C[Se]C(=O)c1cc(C(=O)[Se]CC(C)=O)cc(C(=O)[Se]CC(C)=O)c1 [Compound 24, Se,Se,Se-tris-(2-oxopropyl) benzene-1,3,5-tris-(carboxyselenoate)] | **** (Very potent antibacterial compounds: MIC ≤ 1 µM) | **** (Very potent antibacterial compounds: MIC ≤ 1 µM) | > 100 | 
N#CC[Se]C(=O)c1cccc(C(=O)[Se]CC#N)c1 [Compound 19, Se,Se-bis-(cyanomethyl)benzene-1,3-bis-(carboselenoate)] | *** (Potent antibacterial compounds: 1 µM < MIC ≤ 10 µM) | ** (Moderate antibacterial compounds: 10 µM < MIC ≤ 50 µM) |  | 10 to 50
N#CC[Se]C(=O)c1cc(C(=O)[Se]CC#N)cc(C(=O)[Se]CC#N)c1 [Compound 20, Se,Se,Se-tris-(cyanomethyl) benzene-1,3,5-tris-(carboxyselenoate)] |  |  | 10 to 50 | 

Source: patent EP3628659A1, “SELENOESTER-CONTAINING COMPOUNDS FOR USE IN THE TREATMENT OF MICROBIAL INFECTIONS OR COLORECTAL CANCER” (Consejo Superior De Investigaciones Científicas, priority 2018, dated 2020)
